How the values were obtained:
Details in all cases: incubation time: 72 h
MDA-MB-231 [1] = assay: normalised response (% of control), CellTox Green; higher = less cell death (100 = DMSO, 0 = benzethonium chloride kill control)
How it was run: (§1)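 Breast cancer cell lines (20 µl suspension) were seeded into 384-well plates holding compound at 5 concentrations in 10-fold steps over a compound-specific 10,000-fold range, then incubated 72 h. CellTox Green fluorescence (485/520 nm) was read first, then CellTiter-Glo luminescence after 10 min at room temperature. Each plate was normalised to 0.1 % DMSO (100) and a positive kill control (0). Each value is the normalised signal at a single concentration of the series.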

HCC1143 [2] = assay: as above
How it was run: as §1

Hs578T [3] = assay: as above
How it was run: as §1

MCF-10A [4] = assay: as above
How it was run: as §1

BT-474 [5] = assay: as above
How it was run: as §1

MFM-223 [6] = assay: as above
How it was run: as §1

HCC1937 [7] = assay: as above
How it was run: as §1

CAL-148 [8] = assay: as above
How it was run: as §1

HDQ-P1 [9] = assay: as above
How it was run: as §1

CAL-120 [10] = assay: as above
How it was run: as §1

CAL-51 [11] = assay: as above
How it was run: as §1

MDA-MB-453 [12] = assay: as above
How it was run: as §1

MDA-MB-468 [13] = assay: as above
How it was run: as §1

CAL-85-1 [14] = assay: as above
How it was run: as §1

MDA-MB-436 [15] = assay: as above
How it was run: as §1

HCC1599 [16] = assay: as above
How it was run: as §1

DU-4475 [17] = assay: as above
How it was run: as §1

MDA-MB-231 [18] = assay: normalised response (% of control), CellTiter-Glo; higher = more viable cells (100 = DMSO, 0 = benzethonium chloride kill control)
Method: (§2)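 DSRT, 72 h incubation, CellTox Green / CellTiter-Glo readout. Signal is normalised to DMSO and benzethonium chloride controls. Value is the normalised response at dose 3.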

HCC1143 [19] = assay: as above
Method: as §2

Hs578T [20] = assay: as above
Method: as §2

MCF-10A [21] = assay: as above
Method: as §2

BT-474 [22] = assay: as above
Method: as §2

MFM-223 [23] = assay: as above
Method: as §2

HCC1937 [24] = assay: as above
Method: as §2

CAL-148 [25] = assay: as above
Method: as §2

HDQ-P1 [26] = assay: as above
Method: as §2

CAL-120 [27] = assay: as above
Method: as §2

CAL-51 [28] = assay: as above
Method: as §2

SK-BR-3 = assay: as above
Method: as §2

MDA-MB-453 [29] = assay: as above
Method: as §2

MDA-MB-468 [30] = assay: as above
Method: as §2

CAL-85-1 [31] = assay: as above
Method: as §2

MDA-MB-436 [32] = assay: as above
Method: as §2

HCC1599 [33] = assay: as above
Method: as §2

BT-549 [34] = assay: as above
Method: as §2

DU-4475 [35] = assay: as above
Method: as §2

BT-549 [36] = assay: normalised response (% of control), CellTox Green; higher = less cell death (100 = DMSO, 0 = benzethonium chloride kill control)
How it was run: as §1

| Compound | normalised response (MDA-MB-231 [1]) [%] | normalised response (HCC1143 [2]) [%] | normalised response (Hs578T [3]) [%] | normalised response (MCF-10A [4]) [%] | normalised response (BT-474 [5]) [%] | normalised response (MFM-223 [6]) [%] | normalised response (HCC1937 [7]) [%] | normalised response (CAL-148 [8]) [%] | normalised response (HDQ-P1 [9]) [%] | normalised response (CAL-120 [10]) [%] | normalised response (CAL-51 [11]) [%] | normalised response (MDA-MB-453 [12]) [%] | normalised response (MDA-MB-468 [13]) [%] | normalised response (CAL-85-1 [14]) [%] | normalised response (MDA-MB-436 [15]) [%] | normalised response (HCC1599 [16]) [%] | normalised response (DU-4475 [17]) [%] | normalised response (MDA-MB-231 [18]) [%] | normalised response (HCC1143 [19]) [%] | normalised response (Hs578T [20]) [%] | normalised response (MCF-10A [21]) [%] | normalised response (BT-474 [22]) [%] | normalised response (MFM-223 [23]) [%] | normalised response (HCC1937 [24]) [%] | normalised response (CAL-148 [25]) [%] | normalised response (HDQ-P1 [26]) [%] | normalised response (CAL-120 [27]) [%] | normalised response (CAL-51 [28]) [%] | normalised response (SK-BR-3) [%] | normalised response (MDA-MB-453 [29]) [%] | normalised response (MDA-MB-468 [30]) [%] | normalised response (CAL-85-1 [31]) [%] | normalised response (MDA-MB-436 [32]) [%] | normalised response (HCC1599 [33]) [%] | normalised response (BT-549 [34]) [%] | normalised response (DU-4475 [35]) [%] | normalised response (BT-549 [36]) [%] |
| --- | --- | --- | --- | --- | --- | --- | --- | --- | --- | --- | --- | --- | --- | --- | --- | --- | --- | --- | --- | --- | --- | --- | --- | --- | --- | --- | --- | --- | --- | --- | --- | --- | --- | --- | --- | --- | --- |
| O=C(/C=C/c1cccnc1)NCCCCC1CCN(C(=O)c2ccccc2)CC1 [Daporinad] (10 nM) | 95.4 | 58.3 | 21.9 | 96 | 95.6 | 84.7 | 101 | 96.1 | 105 | 100 | 112 | 105 | 106 | 105 | 93.7 | 101 | 101 | 91.5 | 45.2 | 18.4 | 41.6 | 97 | 5.44 | 42.5 | 115 | 74.4 | 56.2 | 115 | 103 | 21.1 | 1.06 | 44.6 | 105 | 4.73 | 102 | 30.4 |  |
| Nc1ncn([C@H]2C[C@H](O)[C@@H](CO)O2)c(=O)n1 [Decitabine] (100 nM) | 91.8 | 105 | 109 | 105 | 94.3 | 107 | 91.4 | 106 | 56.6 | 90.5 | 76 | 95.8 | 89.8 | 104 | 90.2 | 106 | 97.5 | 105 | 104 | 104 | 101 | 103 | 104 | 93.2 | 93.1 | 94.9 | 99.4 | 82.4 | 91.2 | 107 | 52.5 | 97.3 | 96.5 | 113 | 92.2 | 94.9 |  |
| Nc1ccccc1NC(=O)c1ccc(CNC(=O)OCc2cccnc2)cc1 [Entinostat] (100 nM) | 103 | 67.2 | 109 |  | 100 | 99.3 | 101 | 104 | 107 | 97.4 | 101 | 101 | 105 | 103 | 80.2 | 96.6 | 100 | 98.6 | 103 | 102 | 108 | 94.8 | 104 | 94 | 104 | 104 | 98.2 | 76.1 | 107 | 103 | 96.8 | 112 | 102 | 96.9 | 115 | 105 | 110 |
| CC[C@H](Nc1ncnc2[nH]cnc12)c1nc2cccc(F)c2c(=O)n1-c1ccccc1 [GS-1101] (100 nM) | 84.8 | 107 | 94 |  | 93 | 78 | 87.8 | 102 | 105 | 102 | 93.3 | 100 | 103 | 93.9 | 80.1 | 94 | 97.6 | 92 | 98.5 | 96.8 | 84.1 | 92.7 | 91.9 | 90.8 | 96.1 | 93.1 | 94.6 | 93.3 | 85.2 | 84.8 | 86.8 | 90.4 | 90 | 93 | 95.1 | 102 | 105 |
| Nc1nc2[nH]cc(CCc3ccc(C(=O)N[C@@H](CCC(=O)O)C(=O)O)cc3)c2c(=O)[nH]1 [Pemetrexed] (100 nM) | 87.1 |  | 103 | 103 | 96.2 | 90.4 | 88.5 | 99.7 | 102 | 98 | 88.1 | 104 | 93 | 103 | 58.9 | 91.2 | 97.7 | 96.8 | 103 | 28.8 | 92.8 | 88.6 | 95.2 | 75.7 | 93.2 | 92.3 | 105 | 66.6 | 63.2 | 98.1 | 80.4 | 61 | 80.9 | 72.1 | 104 | 95 | 96.6 |
| Cc1cnc(NC(=O)Nc2cc(Br)c(C)cc2OC[C@@H]2CNCCO2)cn1 [Rabusertib] (10 nM) | 122 |  | 108 | 103 | 102 | 109 | 119 | 98.4 | 94.3 | 102 | 106 | 106 | 89.4 | 95.2 | 107 | 110 | 106 | 109 | 104 | 107 | 107 | 97.6 | 104 | 99.7 | 112 | 96.3 | 109 | 91.9 | 110 | 118 | 108 | 102 | 115 | 106 | 98.4 | 104 | 95.7 |
| CC(=O)Nc1cccc(-n2c(=O)n(C3CC3)c(=O)c3c(Nc4ccc(I)cc4F)n(C)c(=O)c(C)c32)c1 [Trametinib] (2.5 nM) |  | 112 | 89.9 | 80.7 | 100 | 72.4 | 117 | 102 | 98.6 | 96.3 | 117 | 103 | 120 | 86.5 | 101 | 117 | 82.8 | 86.5 | 89.3 | 90.8 | 47.4 | 94 | 106 | 86.8 | 99.1 | 70.1 | 101 | 112 | 98.4 | 109 | 93.3 | 97.4 | 96.1 | 99.2 | 100 | 24.3 | 94.2 |
| CCCCC(=O)OCC(=O)[C@]1(O)Cc2c(O)c3c(c(O)c2[C@@H](O[C@H]2C[C@H](NC(=O)C(F)(F)F)[C@H](O)[C@H](C)O2)C1)C(=O)c1c(OC)cccc1C3=O [Valrubicin] (50 nM) | 122 | 111 | 114 | 106 | 103 | 108 |  | 76.3 | 107 | 111 | 76.7 | 108 | 152 | 118 | 101 | 115 | 109 | 97.4 | 104 | 101 | 101 | 98.2 | 101 | 97.9 | 97 | 102 | 98.4 | 72.7 | 94.8 | 118 | 92.9 | 98.8 | 92.2 | 91.7 | 86.2 | 84 | 121 |
| CCCS(=O)(=O)Nc1ccc(F)c(C(=O)c2c[nH]c3ncc(-c4ccc(Cl)cc4)cc23)c1F [Vemurafenib] (100 nM) |  | 82.2 | 103 | 91.9 | 98.3 | 94.2 | 92.1 | 97.3 | 108 | 97.7 | 76.9 | 97.9 | 98.4 | 102 | 72.4 | 94 | 96.1 | 93.4 | 94.7 | 95.9 | 96.8 | 96.9 | 89.4 | 97.7 | 93.9 | 94.3 | 93.3 | 88.6 | 84.8 | 79.3 | 91.7 | 91.8 | 95.9 | 95.5 | 97.9 | 86.5 | 94.2 |

Reference: the supplement of paper PMC4862054
